≈ marks a conversion by molar mass, not a printed value.
How the values were obtained:
[1] = Lipophilicity, log P of the compound; settings: octanol/water
[2] = test system: Mycobacterium tuberculosis; assay: Antitubercular activity against Mycobacterium tuberculosis BCG; format: functional

| SMILES | logP ([1]; logP) | MIC [2] | log(1/MIC) [2] | logP [1] |
| --- | --- | --- | --- | --- |
| NNC(=O)c1ccc([N+](=O)[O-])cc1 | -1.1 | 12 µg/mL (≈ 66.2 µM) | -1.079 |  |
| NNC(=O)/C=C/c1ccccc1 | -1.23 | 0.4 µg/mL (≈ 2.47 µM) | 0.3979 |  |
| NNC(=O)C1CCNCC1 | -3.46 | 600 µg/mL (≈ 4190 µM) | -2.778 |  |
| NNC(=O)c1ccc(O)cc1 |  | 12 µg/mL (≈ 78.9 µM) | -1.079 | -1.51 |
| NNC(=O)c1ccc(Br)cc1 | 0.018 | 12 µg/mL (≈ 55.8 µM) | -1.079 |  |
| COc1cc(C(=O)NN)ccc1O | -1.79 | 30 µg/mL (≈ 165 µM) | -1.477 |  |
| NNC(=O)c1cccc(N)c1 | -2.07 | 3 µg/mL (≈ 19.8 µM) | -0.4771 |  |
| NNC(=O)c1ccncc1N | -3.12 | 1.5 µg/mL (≈ 9.86 µM) | -0.1761 |  |
| NNC(=O)c1ccc(Cl)cc1 |  | 3 µg/mL (≈ 17.6 µM) | -0.4771 | -0.132 |
| NNC(=O)c1ccccc1N | -2.07 | 30 µg/mL (≈ 198 µM) | -1.477 |  |
| NNC(=O)Cc1ccncc1 | -2.69 | 100 µg/mL (≈ 662 µM) | -2 |  |
| Cc1ccc(C)n1NC(=O)c1ccco1 | 3.04 | 15 µg/mL (≈ 73.4 µM) | -1.176 |  |
| O=C(NNS(=O)(=O)c1ccc([N+](=O)[O-])cc1)c1ccncc1 | -1.54 | 60 µg/mL (≈ 186 µM) | -1.778 |  |
| O=C(NNS(=O)(=O)c1ccccc1)c1ccncc1 | -1.29 | 3 µg/mL (≈ 10.8 µM) | -0.4771 |  |
| COc1ccc(C(=O)NN)cc1 |  | 8 µg/mL (≈ 48.1 µM) | -0.9031 |  |
| NNC(=O)c1ccc(N)cc1 |  | 6 µg/mL (≈ 39.7 µM) | -0.7782 | -2.07 |
| O=C(NNC(=O)c1ccncc1)c1ccncc1 |  | 8 µg/mL (≈ 33 µM) | -0.9031 | -2.984 |
| CC(C)N(N)C(=O)c1ccco1 | 0.115 | 15 µg/mL (≈ 89.2 µM) | -1.176 |  |
| CCCCC/C(C)=N\NC(=O)c1cccs1 | 1.71 | 3 µg/mL (≈ 12.6 µM) | -0.4771 |  |
| O=C(NN=C1CCCCC1)c1cccs1 | 0.789 | 3 µg/mL (≈ 13.5 µM) | -0.4771 |  |
| CNC1C(OC2C(OC3C(O)C(O)C(NC(=N)N)C(O)C3NC(=N)N)OC(C)C2(O)/C=N/NC(=O)c2cccs2)OC(CO)C(O)C1O (configuration not stated) |  | 0.25 µg/mL (≈ 0.354 µM) | 0.6021 |  |
| NNC(=O)c1ccc(Br)o1 | 1.62 | 12 µg/mL (≈ 58.5 µM) | -1.079 |  |

| SMILES | logP ([1]; logP) | MIC [2] | log(1/MIC) [2] | logP [1] |
| --- | --- | --- | --- | --- |
| NNC(=O)c1ccc(C(=O)NN)o1 | -1.63 | 6 µg/mL (≈ 32.6 µM) | -0.7782 |  |
| NNC(=O)/C=C/c1ccco1 | -2.02 | 3 µg/mL (≈ 19.7 µM) | -0.4771 |  |
| CC(C)(C#N)NNC(=O)c1ccco1 | 1.21 | 3 µg/mL (≈ 15.5 µM) | -0.4771 |  |
| CC(C)=NNC(=O)c1ccco1 | 0.656 | 4 µg/mL (≈ 24.1 µM) | -0.6021 |  |
| CC(=O)Nc1ccc(/C=N\NC(=O)c2ccco2)cc1 | 2.64 | 4.5 µg/mL (≈ 16.6 µM) | -0.6532 |  |
| NNC(=O)c1cc2ccccc2o1 | 0.835 | 2 µg/mL (≈ 11.4 µM) | -0.301 |  |
| NNC(=O)c1ccsc1 | -1.2 | 8 µg/mL (≈ 56.3 µM) | -0.9031 |  |
| NNC(=O)Cc1ccsc1 | -1.57 | 100 µg/mL (≈ 640 µM) | -2 |  |
| CC(C)/C=N/NC(=O)c1cccs1 | 0.125 | 1.2 µg/mL (≈ 6.11 µM) | -0.07918 |  |
| CCCCCC/C=N/NC(=O)c1cccs1 | 1.84 | 6 µg/mL (≈ 25.2 µM) | -0.7782 |  |
| NNC(=O)c1ccc(C(=O)NN)cc1 | -3.83 | 3 µg/mL (≈ 15.4 µM) | -0.4771 |  |
| NNC(=O)C(O)(c1ccccc1)c1ccccc1 | 0.196 | 100 µg/mL (≈ 413 µM) | -2 |  |
| CCCCCCCCCCCCNNC(=O)c1ccncc1 | 3.64 | 0.05 µg/mL (≈ 0.164 µM) | 1.301 |  |
| O=C(NNCc1ccco1)c1ccncc1 | -0.641 | 15 µg/mL (≈ 69.1 µM) | -1.176 |  |
| CC(=O)N1CCC(C(=O)NN)CC1 | -3.98 | 6 µg/mL (≈ 32.4 µM) | -0.7782 |  |
| CC(=O)NN | -2.78 | 150 µg/mL (≈ 2020 µM) | -2.176 |  |
| NNC(=O)CCC(=O)NN |  | 25 µg/mL (≈ 171 µM) | -1.398 |  |
| NNC(=O)CCCCCCCCCCC(=O)NN | -2.03 | 3 µg/mL (≈ 11.6 µM) | -0.4771 |  |
| NNC(=O)C1CCC(C(=O)NN)CC1 (configuration not stated) |  | 300 µg/mL (≈ 1500 µM) | -2.477 | -4.55 |
| NNC(=O)c1ccc(I)cc1 | 0.278 | 6 µg/mL (≈ 22.9 µM) | -0.7782 |  |
| CN(C)c1ccc(C(=O)NN)cc1 | -0.65 | 6 µg/mL (≈ 33.5 µM) | -0.7782 |  |
| O=C(N/N=C(\CO)C(O)C(O)C(O)CO)c1ccncc1 (configuration not stated) |  | 0.06 µg/mL (≈ 0.2 µM) | 1.222 |  |

| SMILES | logP ([1]; logP) | MIC [2] | log(1/MIC) [2] | logP [1] |
| --- | --- | --- | --- | --- |
| O=C(N/N=C/C(O)C(O)C(OC1OC(CO)C(O)C(O)C1O)C(O)CO)c1ccncc1 (configuration not stated) |  | 0.15 µg/mL (≈ 0.325 µM) | 0.8239 |  |
| Cc1ccc(C)n1NC(=O)c1ccncc1 | 0.854 | 10 µg/mL (≈ 46.5 µM) | -1 |  |
| O=CNNC(=O)c1ccncc1 | -2.99 | 3 µg/mL (≈ 18.2 µM) | -0.4771 |  |
| CCCCCC/C=N/NC(=O)c1ccncc1 | 0.719 | 0.03 µg/mL (≈ 0.129 µM) | 1.523 |  |
| C/C=C/CCCCCCC/C=N/NC(=O)c1ccncc1 | 2.29 | 0.15 µg/mL (≈ 0.522 µM) | 0.8239 |  |
| CCCCCCCCCC/C=N/NC(=O)c1ccncc1 | 2.83 | 0.3 µg/mL (≈ 1.04 µM) | 0.5229 |  |
| CC1CCC(=NNC(=O)c2ccncc2)CC1 (configuration not stated) | 0.315 | 0.07 µg/mL (≈ 0.303 µM) | 1.1549 |  |
| CC(C)COc1ccc(/C=N/NC(=O)c2ccncc2)cc1 | 2.81 | 0.2 µg/mL (≈ 0.673 µM) | 0.699 |  |
| CC(C)CCOc1ccc(/C=N/NC(=O)c2ccncc2)cc1 | 3.34 | 0.05 µg/mL (≈ 0.161 µM) | 1.301 |  |
| N/N=C(\CC(=O)c1ccncc1)C(=O)c1ccncc1 | -3.16 | 15 µg/mL (≈ 55.9 µM) | -1.176 |  |
| CC(C(=O)c1ccncc1)C(/C=N/N)C(=O)c1ccncc1 (configuration not stated) | -2.43 | 0.5 µg/mL (≈ 1.69 µM) | 0.301 |  |
| CC(=O)C/C(C)=N/NC(=O)c1ccncc1 | -3.02 | 0.8 µg/mL (≈ 3.65 µM) | 0.09691 |  |
| O=C(N/N=C/C(O)C(O)C(O)CO)c1ccncc1 (configuration not stated) |  | 0.05 µg/mL (≈ 0.186 µM) | 1.301 | -5.33 |
| O=C(N/N=C\C(O)C(O)C(O)C(O)CO)c1ccncc1 (configuration not stated) |  | 0.15 µg/mL (≈ 0.501 µM) | 0.8239 |  |
| CC(=O)Nc1ccc(/C=N\NC(=O)c2ccncc2)cc1 | 0.457 | 0.08 µg/mL (≈ 0.283 µM) | 1.097 |  |
| CCC(CC)NNC(=O)c1ccncc1 | -0.19 | 3 µg/mL (≈ 14.5 µM) | -0.4771 |  |
| O=C(NNC1CCCCC1)c1ccncc1 | -0.055 | 5 µg/mL (≈ 22.8 µM) | -0.699 |  |
| CC1CCCC(NNC(=O)c2ccncc2)C1 (configuration not stated) | 0.464 | 4 µg/mL (≈ 17.1 µM) | -0.6021 |  |
| CC1CCC(NNC(=O)c2ccncc2)CC1 (configuration not stated) | 0.594 | 5 µg/mL (≈ 21.4 µM) | -0.699 |  |
| NNC(=O)C(O)c1ccccc1 (configuration not stated) | -1.37 | 40 µg/mL (≈ 241 µM) | -1.602 |  |
| NNC(=O)Cc1ccc(Cl)cc1 | -0.503 | 10 µg/mL (≈ 54.2 µM) | -1 |  |
| NNC(=O)C1Cc2ccccc2O1 (configuration not stated) | -1.32 | 22.5 µg/mL (≈ 126 µM) | -1.352 |  |
